Tests used:
[1] = test system: OVA-specific CD8+ T cells; assay: T cell effector function in EO771 organoid co-culture; type: cell-based, mouse; conditions: for IFNγ, GZMB and TNFα expression levels in the co-cultured CD8+ T cells: co-cultured with drug-treated tumor organoids; for secreted IFNγ and TNFα (ELISA): vs T cells co-cultured with untreated organoids
Description: (§1) T cell effector function analysis: We measured cytokine and cytolytic granule production (IFNγ, GZMB and TNFα) of CD8+ T cells from mouse tumor samples and tumor organoid-T cell co-culture. Briefly, CD8+ T cells were placed into the 24-well plate at 1×10^6 cells/well, stimulated with 1 μM ionomycin and 50 ng ml-1 phorbol 12-myristate 13-acetate (PMA) (Sigma-Aldrich) for 4 h, in the presence of 5 μg ml-1 Brefeldin A (BFA), with the purpose to amplify the expression of intracellular cytokines61. The cells were stained with APC/Cy7-conjugated anti-CD8a (Biolegend) for 15 min and then fixed by 4% PFA. After washing, cells were stained with PerCP/Cy7-conjugated anti-GZMB, APC-conjugated anti-IFNγ and PE-conjugated anti-TNFα (Biolegend) for 15 min. In flow cytometric analyses, T cells stained with isotype control antibodies were used as negative controls for gating the cytokine or granule-producing cells. For T cells from tumor organoid-T cell co-culture, tumor organoids were first digested into single cells with TrypLE Express at 37° C. before APC/Cy7-conjugated anti-CD8a staining. In the IFNγ and TNFα secretion assay (Biolegend), T cells were stimulated with ionomycin and PMA without the presence of BFA. The media were collected for ELISA assay.

[2] = test system: NY-ESO-1-specific CD8+ T cells; assay: T cell effector function in MDA-MB-468 organoid co-culture; type: cell-based, human; conditions: vs control groups; FIG. 2D
Description: as §1

[3] = test system: NY-ESO-1+ MDA-MB-468 cells; assay: NY-ESO-1+ MDA-MB-468 organoid and NY-ESO-1-specific CD8+ T cell co-culture cytotoxicity; type: cell-based, human; conditions: MDA-MB-468/CAF organoids; FIG. 2C
Description: (§2) Breast tumor organoid culture: Single cells isolated from EO771-derived tumors in tumor-bearing C57BL/6 mice were suspended into cold mouse breast cancer culture medium containing 10% Matrigel (Corning) with a concentration of 2×10^5 cells ml^−1. The cells (2 ml) were seeded into each well of pre-warmed 6-well microplate with ultra-low attachment surface (Corning) and cultured at 37° C. with 5% CO2. The same volume of fresh culture medium was added every other day. After 7-day culture, tumor organoids were collected using cell strainers with pore size of 70 and 150 μm. For human tumor organoid culture, 2 ml of NY-ESO-1+ MDA-MB-468 cells with a concentration of 2×10^5 cells ml-1 were seeded into each well of the prewarmed 6-well microplate with ultra-low attachment surface. The cells were cultured for two days to generate tumor spheroids. The resulting spheroids were mixed with cancer associated fibroblasts (CAFs) with a ratio of 2:1 (tumor cells versus CAFs) and cultured in the human breast cancer organoid culture medium3 for 5 days. Finally, the MDA-MB-468 tumor organoids with diameter of 70˜150 μm were used for co-culture with NY-ESO-1-specific human CD8+ T cells (ASTARTE Biologics). Patient-derived organoids (PDOs) were cultured following the same procedures as mouse EO771 tumor organoids using human breast cancer organoid culture medium.
Cytotoxicity of CD8+ T cells in the co-culture with tumor organoids We generated mouse EO771 (Luc+OVA+) cell line that presents OVA257-264 antigen (from chicken ovalbumin) and human MDA-MB-468 (NY-ESO-1+) cell line that presents NY-ESO-1 antigen for use in the T cell-mediated cytotoxicity assay. OVA-specific CD8+ T cells were isolated from the spleen of OT-I mouse that contains transgenic inserts of Tcra-V2 and Tcrb-V5 genes. The transgenic T cell receptor can recognize the ovalbumin peptide SIINFEKL (OVA257-264; SEQ ID NO: 55). […] The cells were co-cultured for 24 h and subject to further analyses, such as optical and fluorescence imaging, luciferase assay or flow cytometry.

[4] = test system: PDOs from breast cancer patients; assay: Patient-derived organoids co-cultured with autologous CD8+ T cells; type: cell-based, human; conditions: for T cell cytotoxicity: PDO2 and PDO7
Description: as §2
Cytotoxicity of CD8+ T cells in the co-culture with tumor organoids We generated mouse EO771 (Luc+OVA+) cell line that presents OVA257-264 antigen (from chicken ovalbumin) and human MDA-MB-468 (NY-ESO-1+) cell line that presents NY-ESO-1 antigen for use in the T cell-mediated cytotoxicity assay. OVA-specific CD8+ T cells were isolated from the spleen of OT-I mouse that contains transgenic inserts of Tcra-V2 and Tcrb-V5 genes. The transgenic T cell receptor can recognize the ovalbumin peptide SIINFEKL (OVA257-264; SEQ ID NO: 55). Anti-NY-ESO-1 human CD8^+ T cells (CELLERO™) were used to recognize the NY-ESO-1+ MDA-MB-468 cells. Autologous human CD8+ T cells were isolated from patient tumor tissues and amplified in the DMEM/F12 medium supplemented with 10% FBS, 2 mM Ultraglutamine I, 1% penicillin/streptomycin and 10 ng mL-1 of human IL2 for 7 days. The CD8+ T cells were stimulated by the T-activator CD3/CD28 Dynabeads (Gibco, 11452D for mouse and 11131D for human) for 48 h prior to use for cytotoxicity assay. Mouse and human tumor organoids with diameter between 70 and 150 μm were collected and mixed with corresponding CD8+ T cells in DMEM/F12 medium supplemented with 10% FBS, 2 mM Ultraglutamine I, 1% penicillin/streptomycin and 10 ng mL-1 IL2 (Biolegend, mouse: 575402; human: 589102) at a ratio of organoids versus T cells at 1:200 in the microplates with ultra-low attachment surface. The cells were co-cultured for 24 h and subject to further analyses, such as optical and fluorescence imaging, luciferase assay or flow cytometry.
There is an unmet clinical need to predict responsiveness to new cancer immunotherapy. Both syngeneic mouse models and humanized patient-derived xenograft (PDX) models are time-consuming and not cost-efficient. Here, we wanted to apply the standardized tumor organoid model in this study to predict the therapeutic responses to BML-210, CUDC-101 and GSK-LSD1. In this setting, autologous CD8+ T cells were isolated from patient tumor tissues and amplified for a week. Patient-derived organoids (PDOs) were generated from 10 patients with breast cancer (Table 2). The PDOs from each patient were characterized and compared with their originating tumors using Hematoxylin and eosin (H&E) staining and immunofluorescence imaging analysis. EpCAM and SMA were used as biomarkers to identify tumor epithelial cells and cancer-associated fibroblast cells, respectively, which are the main components of a breast tumor tissue. […] We were able to isolate reasonable numbers (>1×10^5) of autologous T cells from 8 out of 10 breast tumor tissues. […]

[5] = PDO1, PDO3, PDO4, PDO5 and PDO8, 48 h pretreatment

| Structure (SMILES) | IFNγ, GZMB and TNFα expression levels in the co-cultured CD8+ T cells [1] | secreted IFNγ and TNFα (ELISA) [1] | GZMB, IFNγ and TNFα expression levels in the CD8+ T cells [2] | T cell-mediated cytotoxicity [3] | T cell-mediated cytotoxicity [4, 5] | T cell cytotoxicity [4] | T cell-mediated cytotoxicity ([4]; PDO6) |
| --- | --- | --- | --- | --- | --- | --- | --- |
| Nc1ccccc1NC(=O)CCCCCCC(=O)Nc1ccccc1 [BML-210] | remarkably up-regulated | much higher levels | much higher | pronouncedly induced | significantly higher T cell-mediated cytotoxicity | only moderate increases (statistically not significant) | higher T cell-mediated cytotoxicity |
| C#Cc1cccc(Nc2ncnc3cc(OC)c(OCCCCCCC(=O)NO)cc23)c1 [CUDC-101] | remarkably up-regulated | much higher levels | much higher | pronouncedly induced | significantly higher T cell-mediated cytotoxicity | only moderate increases (statistically not significant) | modest effect |
| c1ccc([C@@H]2C[C@H]2NC2CCNCC2)cc1 [GSK-LSD1] | remarkably up-regulated | much higher levels | much higher | pronouncedly induced | significantly higher T cell-mediated cytotoxicity | only moderate increases (statistically not significant) | higher T cell-mediated cytotoxicity |

— US20240299321A1, “METHODS TO SENSITIZE CANCER CELLS AND STANDARDIZED SCREENING ASSAY FOR IMMUNOTHERAPY” (THE TRUSTEES OF INDIANA UNIVERSITY, priority 2020, published 2024)
